Literature values, collected in US20110028498A1, “METHOD FOR EVALUATING PATIENTS FOR TREATMENT WITH DRUGS TARGETING RET RECEPTOR TYROSINE KINASE” (priority 2006, published 2011).

System: RET-dependent thyroid tumour cell growth
Conditions: in vitro, literature

## COc1cc2c(Nc3ccc(Br)cc3F)ncnc2cc1OCC1CCN(C)CC1 [vandetanib, 4-(4-bromo-2-fluoroanilino)-6-methoxy-7-(1-methylpiperidin-4-ylmethoxy)quinazoline]
  growth-inhibitory effect on RET-dependent thyroid tumour cell growth: strong growth-inhibitory effect
